Data: doi:10.1101/2024.08.13.607785v1 (biorxiv, 2024)
Like-named read-outs stand apart in the source and are kept apart here. Blank lines part the entries; values can stand above or below the molecule they belong to.

Key:
Assay in all cases: biochemical
Parameters in all cases: species or system human cell line lysate
[1] = target: Dual specificity protein kinase CLK3 ; CLK3 ; P49761 (Homo sapiens, UniProt P49761)
[2] = target: Serine/threonine-protein kinase haspin ; HASPIN ; Q8TF76 (Homo sapiens, UniProt Q8TF76)
[3] = target: Serine/threonine-protein kinase ULK1 ; ULK1 ; O75385 (Homo sapiens, UniProt O75385)
[4] = target: Serine/threonine-protein kinase Nek3 ; NEK3 ; P51956 (Homo sapiens, UniProt P51956)
[5] = target: Tyrosine-protein kinase HCK ; HCK ; P08631 (Homo sapiens, UniProt P08631)
[6] = target: T1, Cyclin-G-associated kinase ; GAK ; O14976 (Homo sapiens, UniProt O14976)
T1 sequence (O14976 1-1311): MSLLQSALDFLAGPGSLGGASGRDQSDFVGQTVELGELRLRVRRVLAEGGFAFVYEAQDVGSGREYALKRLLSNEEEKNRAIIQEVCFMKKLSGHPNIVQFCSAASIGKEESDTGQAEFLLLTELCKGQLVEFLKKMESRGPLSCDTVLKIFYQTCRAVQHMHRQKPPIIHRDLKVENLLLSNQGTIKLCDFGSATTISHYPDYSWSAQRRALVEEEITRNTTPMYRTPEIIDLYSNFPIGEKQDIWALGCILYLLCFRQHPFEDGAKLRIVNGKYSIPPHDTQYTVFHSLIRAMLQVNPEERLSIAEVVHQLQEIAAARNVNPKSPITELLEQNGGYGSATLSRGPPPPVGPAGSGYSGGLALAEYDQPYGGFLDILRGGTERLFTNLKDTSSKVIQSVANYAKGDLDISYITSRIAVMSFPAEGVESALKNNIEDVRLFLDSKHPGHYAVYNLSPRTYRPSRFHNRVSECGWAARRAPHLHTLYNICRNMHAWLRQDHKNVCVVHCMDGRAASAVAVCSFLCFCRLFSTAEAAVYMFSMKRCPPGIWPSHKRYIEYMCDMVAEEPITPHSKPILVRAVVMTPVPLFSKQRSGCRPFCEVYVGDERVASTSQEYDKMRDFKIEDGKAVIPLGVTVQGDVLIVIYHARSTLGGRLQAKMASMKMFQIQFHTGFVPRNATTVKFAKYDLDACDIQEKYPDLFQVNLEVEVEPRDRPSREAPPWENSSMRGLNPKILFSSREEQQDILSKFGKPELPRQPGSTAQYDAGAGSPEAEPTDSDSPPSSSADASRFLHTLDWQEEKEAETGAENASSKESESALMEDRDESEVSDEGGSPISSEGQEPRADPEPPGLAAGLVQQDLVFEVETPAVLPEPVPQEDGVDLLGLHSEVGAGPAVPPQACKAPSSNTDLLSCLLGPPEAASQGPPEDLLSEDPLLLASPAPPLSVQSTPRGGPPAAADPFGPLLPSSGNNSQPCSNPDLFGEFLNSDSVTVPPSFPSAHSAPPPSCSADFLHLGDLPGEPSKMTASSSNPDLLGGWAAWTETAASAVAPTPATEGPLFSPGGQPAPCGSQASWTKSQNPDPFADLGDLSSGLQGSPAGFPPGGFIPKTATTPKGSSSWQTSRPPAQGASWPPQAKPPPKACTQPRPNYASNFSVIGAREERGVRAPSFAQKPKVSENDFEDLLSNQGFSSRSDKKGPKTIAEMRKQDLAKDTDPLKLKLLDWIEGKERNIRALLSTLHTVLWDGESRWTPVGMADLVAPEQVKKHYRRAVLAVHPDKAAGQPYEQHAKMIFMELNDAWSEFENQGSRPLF

[7] = target: Microtubule-associated serine/threonine-protein kinase 2 ; MAST2 ; Q6P0Q8 (Homo sapiens, UniProt Q6P0Q8)
[8] = target: Isoform 5 of Aurora kinase B ; AURKB ; Q96GD4-5 (Homo sapiens, UniProt Q96GD4)
[9] = target: Tyrosine-protein kinase Mer ; MERTK ; Q12866 (Homo sapiens, UniProt Q12866)
[10] = target: Glycosaminoglycan xylosylkinase ; FAM20B ; O75063 (Homo sapiens, UniProt O75063)
[11] = target: Rho-associated protein kinase 1 ; ROCK1 ; Q13464 (Homo sapiens, UniProt Q13464)
[12] = target: Isoform 2 of Serine/threonine-protein kinase TAO2 ; TAOK2 ; Q9UL54-2 (Homo sapiens, UniProt Q9UL54)
[13] = target: Mitogen-activated protein kinase kinase kinase 6 ; MAP3K6 ; O95382 (Homo sapiens, UniProt O95382)
[14] = target: Interferon-induced, double-stranded RNA-activated protein kinase ; EIF2AK2 ; P19525 (Homo sapiens, UniProt P19525)
[15] = read-out: BAY-1251152 (10 µM) / %Intensity relative to DMSO
[16] = read-out: BAY-1143572 (10 µM) / %Intensity relative to DMSO

Sequence of Tyrosine-protein kinase HCK ; HCK ; P08631 (P08631 whole entry): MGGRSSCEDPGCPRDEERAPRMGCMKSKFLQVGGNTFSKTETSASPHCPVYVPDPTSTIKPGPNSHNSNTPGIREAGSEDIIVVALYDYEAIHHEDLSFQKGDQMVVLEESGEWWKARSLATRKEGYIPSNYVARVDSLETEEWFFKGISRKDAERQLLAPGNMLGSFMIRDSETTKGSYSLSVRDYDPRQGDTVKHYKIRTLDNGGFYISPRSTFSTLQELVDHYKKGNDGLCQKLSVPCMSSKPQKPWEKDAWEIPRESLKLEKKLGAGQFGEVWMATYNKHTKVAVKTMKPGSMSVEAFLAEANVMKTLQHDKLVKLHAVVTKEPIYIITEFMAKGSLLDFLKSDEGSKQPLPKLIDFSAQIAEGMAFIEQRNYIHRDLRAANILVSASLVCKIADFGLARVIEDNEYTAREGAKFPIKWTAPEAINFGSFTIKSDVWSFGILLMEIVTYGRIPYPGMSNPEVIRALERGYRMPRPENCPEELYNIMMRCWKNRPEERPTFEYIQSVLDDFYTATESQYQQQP
Sequence of Serine/threonine-protein kinase haspin ; HASPIN ; Q8TF76 (Q8TF76 whole entry, one chain of several): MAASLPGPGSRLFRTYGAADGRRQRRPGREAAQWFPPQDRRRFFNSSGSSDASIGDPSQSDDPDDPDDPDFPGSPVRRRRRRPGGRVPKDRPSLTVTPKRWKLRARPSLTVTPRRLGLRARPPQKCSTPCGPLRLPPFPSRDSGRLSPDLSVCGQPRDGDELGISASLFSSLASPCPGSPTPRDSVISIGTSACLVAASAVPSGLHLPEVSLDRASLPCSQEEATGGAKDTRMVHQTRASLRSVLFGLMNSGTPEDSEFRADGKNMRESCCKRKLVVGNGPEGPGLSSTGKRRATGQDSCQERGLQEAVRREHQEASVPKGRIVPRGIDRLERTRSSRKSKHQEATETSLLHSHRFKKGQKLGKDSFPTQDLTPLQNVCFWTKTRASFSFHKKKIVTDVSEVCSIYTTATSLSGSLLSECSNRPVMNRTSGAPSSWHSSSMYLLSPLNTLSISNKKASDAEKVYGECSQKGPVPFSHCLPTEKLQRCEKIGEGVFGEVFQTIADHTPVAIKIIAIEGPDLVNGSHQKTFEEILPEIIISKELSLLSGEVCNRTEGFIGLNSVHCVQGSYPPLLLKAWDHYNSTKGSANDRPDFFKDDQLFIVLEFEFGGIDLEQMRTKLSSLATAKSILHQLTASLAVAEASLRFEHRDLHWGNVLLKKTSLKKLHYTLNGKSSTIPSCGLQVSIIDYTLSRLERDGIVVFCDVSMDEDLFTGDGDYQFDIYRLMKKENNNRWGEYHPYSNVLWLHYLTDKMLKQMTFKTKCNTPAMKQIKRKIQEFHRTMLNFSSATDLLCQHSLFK
Sequence of Microtubule-associated serine/threonine-protein kinase 2 ; MAST2 ; Q6P0Q8 (Q6P0Q8 whole entry, canonical isoform, one chain of several): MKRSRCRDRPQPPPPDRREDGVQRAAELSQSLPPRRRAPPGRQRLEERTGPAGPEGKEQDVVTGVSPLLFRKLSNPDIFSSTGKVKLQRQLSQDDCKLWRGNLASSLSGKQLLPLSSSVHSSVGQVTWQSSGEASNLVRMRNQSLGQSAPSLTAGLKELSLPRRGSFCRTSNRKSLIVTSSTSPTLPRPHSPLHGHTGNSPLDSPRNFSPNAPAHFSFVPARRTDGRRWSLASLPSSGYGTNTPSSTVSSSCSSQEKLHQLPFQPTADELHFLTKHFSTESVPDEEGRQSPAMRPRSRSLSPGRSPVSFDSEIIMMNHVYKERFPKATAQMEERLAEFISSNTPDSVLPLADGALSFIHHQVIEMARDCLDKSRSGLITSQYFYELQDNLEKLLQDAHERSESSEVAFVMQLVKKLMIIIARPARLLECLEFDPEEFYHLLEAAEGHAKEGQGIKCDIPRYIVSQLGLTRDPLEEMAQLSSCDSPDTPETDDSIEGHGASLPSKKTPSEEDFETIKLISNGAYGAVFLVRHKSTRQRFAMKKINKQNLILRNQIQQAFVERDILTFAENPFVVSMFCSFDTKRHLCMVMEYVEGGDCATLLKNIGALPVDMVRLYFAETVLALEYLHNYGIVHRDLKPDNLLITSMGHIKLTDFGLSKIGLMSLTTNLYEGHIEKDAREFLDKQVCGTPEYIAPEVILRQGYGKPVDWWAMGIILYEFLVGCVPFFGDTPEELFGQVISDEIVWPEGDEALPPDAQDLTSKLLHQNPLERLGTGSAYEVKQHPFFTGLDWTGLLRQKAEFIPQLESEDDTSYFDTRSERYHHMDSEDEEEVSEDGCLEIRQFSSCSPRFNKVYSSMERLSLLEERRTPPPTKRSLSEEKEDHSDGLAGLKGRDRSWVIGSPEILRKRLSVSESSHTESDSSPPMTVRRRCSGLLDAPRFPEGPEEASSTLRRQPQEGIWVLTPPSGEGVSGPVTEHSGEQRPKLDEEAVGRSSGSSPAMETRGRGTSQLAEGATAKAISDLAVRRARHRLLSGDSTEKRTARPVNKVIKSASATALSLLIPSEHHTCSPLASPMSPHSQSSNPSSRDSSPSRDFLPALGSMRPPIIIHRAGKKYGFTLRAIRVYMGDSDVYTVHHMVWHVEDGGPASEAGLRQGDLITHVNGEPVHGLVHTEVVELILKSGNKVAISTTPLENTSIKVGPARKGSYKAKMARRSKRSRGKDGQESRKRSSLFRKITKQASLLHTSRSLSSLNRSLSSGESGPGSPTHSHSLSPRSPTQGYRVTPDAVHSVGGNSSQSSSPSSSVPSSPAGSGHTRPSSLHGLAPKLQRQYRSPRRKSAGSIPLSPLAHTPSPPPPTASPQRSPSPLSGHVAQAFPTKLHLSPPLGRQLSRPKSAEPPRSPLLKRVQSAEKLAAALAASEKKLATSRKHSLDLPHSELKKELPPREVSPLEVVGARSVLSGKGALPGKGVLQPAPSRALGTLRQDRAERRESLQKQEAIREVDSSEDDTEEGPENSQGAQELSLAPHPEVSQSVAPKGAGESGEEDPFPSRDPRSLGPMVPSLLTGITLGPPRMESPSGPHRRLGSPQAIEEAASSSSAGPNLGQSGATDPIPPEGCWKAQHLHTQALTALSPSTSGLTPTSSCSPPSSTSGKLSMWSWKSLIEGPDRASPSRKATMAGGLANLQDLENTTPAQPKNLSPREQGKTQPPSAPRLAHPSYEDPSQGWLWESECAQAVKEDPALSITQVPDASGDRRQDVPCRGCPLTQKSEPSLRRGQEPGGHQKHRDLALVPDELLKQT
Sequence of Dual specificity protein kinase CLK3 ; CLK3 ; P49761 (P49761 whole entry): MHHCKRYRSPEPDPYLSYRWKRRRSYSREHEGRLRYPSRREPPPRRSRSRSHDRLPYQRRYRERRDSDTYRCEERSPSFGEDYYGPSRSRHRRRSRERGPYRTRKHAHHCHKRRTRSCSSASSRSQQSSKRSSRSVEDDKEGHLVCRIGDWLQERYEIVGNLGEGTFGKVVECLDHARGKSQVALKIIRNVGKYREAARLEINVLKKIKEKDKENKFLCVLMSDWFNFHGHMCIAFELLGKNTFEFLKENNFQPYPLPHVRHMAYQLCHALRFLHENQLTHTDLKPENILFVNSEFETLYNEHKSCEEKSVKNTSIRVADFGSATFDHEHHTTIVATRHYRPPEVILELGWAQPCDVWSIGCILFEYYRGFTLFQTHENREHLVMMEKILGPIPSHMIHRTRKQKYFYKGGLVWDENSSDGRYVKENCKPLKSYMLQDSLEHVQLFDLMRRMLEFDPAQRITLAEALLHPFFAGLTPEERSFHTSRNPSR
Sequence of Tyrosine-protein kinase Mer ; MERTK ; Q12866 (Q12866 whole entry): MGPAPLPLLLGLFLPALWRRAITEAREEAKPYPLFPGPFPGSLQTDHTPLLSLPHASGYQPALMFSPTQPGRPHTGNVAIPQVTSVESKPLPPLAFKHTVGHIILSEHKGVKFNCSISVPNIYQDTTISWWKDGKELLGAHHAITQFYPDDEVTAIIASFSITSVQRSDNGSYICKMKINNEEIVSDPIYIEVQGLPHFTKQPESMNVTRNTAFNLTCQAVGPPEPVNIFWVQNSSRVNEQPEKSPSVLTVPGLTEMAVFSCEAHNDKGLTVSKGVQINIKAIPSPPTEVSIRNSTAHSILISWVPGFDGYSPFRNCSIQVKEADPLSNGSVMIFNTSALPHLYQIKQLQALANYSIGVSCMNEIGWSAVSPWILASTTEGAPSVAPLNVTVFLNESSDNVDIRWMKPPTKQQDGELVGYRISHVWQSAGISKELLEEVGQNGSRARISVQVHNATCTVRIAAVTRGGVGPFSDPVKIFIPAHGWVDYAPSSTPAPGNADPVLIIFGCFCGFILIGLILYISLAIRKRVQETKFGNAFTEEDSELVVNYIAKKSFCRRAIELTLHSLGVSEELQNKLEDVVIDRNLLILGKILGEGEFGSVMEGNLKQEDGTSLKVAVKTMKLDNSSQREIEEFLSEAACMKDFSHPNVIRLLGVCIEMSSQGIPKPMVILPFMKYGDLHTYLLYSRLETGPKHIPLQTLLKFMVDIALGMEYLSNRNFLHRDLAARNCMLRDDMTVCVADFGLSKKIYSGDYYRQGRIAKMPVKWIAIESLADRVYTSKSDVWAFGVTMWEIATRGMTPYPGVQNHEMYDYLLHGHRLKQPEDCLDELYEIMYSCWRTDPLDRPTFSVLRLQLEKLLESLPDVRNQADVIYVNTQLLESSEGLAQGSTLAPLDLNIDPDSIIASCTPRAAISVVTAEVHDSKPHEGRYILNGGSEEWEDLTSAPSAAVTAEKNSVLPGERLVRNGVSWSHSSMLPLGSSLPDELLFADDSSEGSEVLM
Sequence of Isoform 5 of Aurora kinase B ; AURKB ; Q96GD4-5 (Q96GD4 whole entry, canonical isoform): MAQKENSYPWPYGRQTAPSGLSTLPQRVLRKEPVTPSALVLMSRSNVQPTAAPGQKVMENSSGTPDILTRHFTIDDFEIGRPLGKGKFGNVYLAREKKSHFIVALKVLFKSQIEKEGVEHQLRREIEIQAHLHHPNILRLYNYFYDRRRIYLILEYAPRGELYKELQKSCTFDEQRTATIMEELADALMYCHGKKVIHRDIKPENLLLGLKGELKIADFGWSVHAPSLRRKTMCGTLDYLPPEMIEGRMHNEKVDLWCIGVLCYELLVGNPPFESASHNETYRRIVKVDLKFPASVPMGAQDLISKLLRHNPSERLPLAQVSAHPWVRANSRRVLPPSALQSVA

- remaining activity at 10 µM [1, 15]: 115%
- remaining activity at 10 µM [2, 15]: 68.5%
- remaining activity at 10 µM [3, 15]: 145%
- remaining activity at 10 µM [4, 15]: 112%
- remaining activity at 10 µM [5, 15]: 107%
- remaining activity at 10 µM [6, 15]: 100%
- remaining activity at 10 µM [7, 15]: 32.9%
- remaining activity at 10 µM [8, 15]: 65%
- remaining activity at 10 µM [9, 15]: 52.5%
- remaining activity at 10 µM [10, 15]: 123%
- remaining activity at 10 µM [11, 15]: 110%
- remaining activity at 10 µM [12, 15]: 76.6%
- remaining activity at 10 µM [13, 15]: 103%
- remaining activity at 10 µM [14, 15]: 74.4%
SMILES: COc1cc(F)ccc1-c1cc(Nc2cc(CS(C)(=N)=O)ccn2)ncc1F (stereo not shown) [BAY-1251152]

- remaining activity at 10 µM [1, 16]: 113%
- remaining activity at 10 µM [2, 16]: 75.8%
- remaining activity at 10 µM [3, 16]: 132%
- remaining activity at 10 µM [4, 16]: 88.7%
- remaining activity at 10 µM [5, 16]: 108%
- remaining activity at 10 µM [6, 16]: 96.6%
- remaining activity at 10 µM [7, 16]: 42.2%
- remaining activity at 10 µM [8, 16]: 101%
- remaining activity at 10 µM [9, 16]: 86.5%
- remaining activity at 10 µM [10, 16]: 141%
- remaining activity at 10 µM [11, 16]: 114%
- remaining activity at 10 µM [12, 16]: 95.8%
- remaining activity at 10 µM [13, 16]: 103%
- remaining activity at 10 µM [14, 16]: 80%
SMILES: COc1cc(F)ccc1-c1ncnc(Nc2cccc(C[S@](C)(=N)=O)c2)n1 [BAY-1143572]
